The text below walks through data of EP3046573B1, “AMYLIN ANALOGUES” (Zealand Pharma A/S, priority 2013, dated 2015).

pEC50: −log10 of the molar value. Numbered stars: 1 amine (or outer) side, 2 acyl side, 3 side chain; on linkers, the order of the positions; unused ones are H or OH. Bridge positions count the residues as written; N and C are the ends. Square brackets hold non-standard residues; d marks the D form. Peptide text beside a SMILES is read from it. * marks the point of attachment. C20 diacid = O=C(O)CCCCCCCCCCCCCCCCCCC(=O)*; Arachidoyl = CCCCCCCCCCCCCCCCCCCC(=O)*; γGlu = O=C(O)[C@H](CCC(=O)[*:2])N[*:1]; NMeI = CC[C@H](C)[C@H](NC)C(=O)O; Orn = NCCC[C@H](N)C(=O)O; Sar = CNCC(=O)O

For data set [1], the target named is T1, human calcitonin receptor (hCTR2) (Homo sapiens, UniProt P30988).
T1 construct: expressed in transfected cells
T1 sequence (P30988 25-474): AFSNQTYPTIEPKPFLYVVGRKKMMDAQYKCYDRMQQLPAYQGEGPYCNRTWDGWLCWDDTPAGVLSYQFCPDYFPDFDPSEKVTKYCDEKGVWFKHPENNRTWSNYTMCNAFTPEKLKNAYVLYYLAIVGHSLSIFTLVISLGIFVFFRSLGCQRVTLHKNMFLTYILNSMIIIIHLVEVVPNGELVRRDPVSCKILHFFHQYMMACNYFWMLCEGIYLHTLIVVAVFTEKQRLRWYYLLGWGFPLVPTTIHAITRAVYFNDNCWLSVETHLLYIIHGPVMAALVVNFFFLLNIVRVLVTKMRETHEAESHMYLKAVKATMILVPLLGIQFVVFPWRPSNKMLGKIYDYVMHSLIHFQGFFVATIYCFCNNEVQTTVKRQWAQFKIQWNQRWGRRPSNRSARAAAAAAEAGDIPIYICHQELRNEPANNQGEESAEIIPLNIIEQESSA
Briefly: hCTR2 assay: induction of cAMP (AlphaScreen cAMP Assay kit) in COS7 cells expressing hCTR2. In kind it is cell-based. An excerpt: The cell line COS7, originating from African Green Monkey kidney fibroblast cells, was used for establishment of the stable cell lines described below. The COS7 cellular background was used due to it being RAMP naive, and as such it provides the best available system for testing of the monomeric hCTR and different heterodimeric amylin receptor subtypes functionally generated by introduction of the individual RAMPs.
A cell line expressing the human calcitonin receptor (hCTR2) was generated in the COS7 cellular background as stable clones. In brief, hCTR2 (GI: 4502547) was amplified by PCR using primers encoding terminal restriction sites for subcloning. The 5'-end primers additionally encoded a near Kozak consensus sequence to ensure efficient translation. The fidelity of the DNA encoding the receptor was confirmed by DNA sequencing. The PCR products encoding the receptor were subcloned into a mammalian expression vector containing a neomycin (G418) resistance marker. The mammalian expression vector encoding the receptor was transfected into COS7 cells by a standard liposome transfection method. 48 hours post-transfection, cells were seeded for limited dilution cloning and selected with 1 mg/ml G418 in the culture medium. After 3 weeks, surviving colonies of hCTR2-expressing cells were picked, propagated and tested in the amylin efficacy assay as described in Example 3 below. One hCTR2-expressing clone was chosen for compound profiling.
In vitro activity of test peptides at the hCTR2 and hAMYR3 receptors was assessed by measuring the induction of cAMP following stimulation of the receptor by pramlintide or peptides of the invention using the AlphaScreen® cAMP Assay kit from Perkin-Elmer.
Briefly, COS7 cells expressing hCTR2 (see Example 2, above) were seeded at 30-40,000 cells per well in 96-well microtiter plates coated with 0.01 % poly-L-lysine, and grown for 1 day in culture in 100 µl growth medium [DMEM, 10% FCS, Penicillin (100 IU/ml), Streptomycin (100 µg/ml)]. On the day of analysis, growth medium was removed and the cells were washed once with 200 µl Tyrode buffer [Tyrode's Salts (9.6 g/l), 10 mM HEPES, pH 7.4]. Cells were incubated in 100 µl Tyrode buffer containing increasing concentrations of test peptides, 100 µM IBMX and 0.1% casein for 15 min at 37° C. The reaction was stopped by carefully decanting off the compound/buffer medium and replacing it with lysis/detection buffer (80 µl 0.1 % w/v BSA, 5 mM HEPES, 0.3 % v/v Tween-20 in deionized water). After incubation at room temperature for 10 min., the cAMP content of the resulting cell lysate was estimated according to the AlphaScreen® cAMP Assay manufacturer's instructions. EC50 values and relative efficacy values (in %) compared to reference peptide (Pramlintide) were estimated by computer-aided curve fitting using the 4-parameter logistic (4PL) non-linear model.
The in vitro activity results (expressed as EC50 values) for peptides of the invention and for Pramlintide (reference peptide) are summarized in Table 2, below.
In general terms: Bead proximity is the source of the signal in Alpha formats.

The nature of data set [2]: Solubility assessment (turbidity absorbance at 325 nm). Type of data set: physicochemical. The settings on record: stock 2 mg/ml diluted 1:1, ambient temperature (typically 25°C), n=1; for Solubility, Acetate buffer pH 4: 100 mM acetate buffer pH 4.0; for Solubility, Acetate buffer pH 5: 100 mM acetate buffer pH 5.0; for Solubility, Histidine buffer pH 6: 100 mM histidine buffer pH 6.0; for Solubility, Histidine buffer pH 7: 100 mM histidine buffer pH 7.0; for Solubility, Phosphate buffer pH 6: 100 mM phosphate buffer pH 6.0; for Solubility, Phosphate buffer pH 7: 100 mM phosphate buffer pH 7.0; for Solubility, Phosphate buffer pH 7.5: 100 mM phosphate buffer pH7.5. On the procedure: A stock solution of the test peptide (2 mg/ml; determined from the weighed amount of peptide) in demineralized water adjusted to pH 2.5 with HCI was prepared, and aliquots were diluted 1:1 in 100 mM acetate buffer (pH 4.0 and pH 5.0), 100 mM histidine buffer (pH 6.0 and pH 7.0) and 100 mM phosphate buffer (pH 6.0, pH 7.0 and pH7.5), respectively, and loaded in a standard flat-bottom, non-sterile 96-well UV Microplate. The absorbance of samples (single samples, n=1) at 280 and 325 nm was measured in an absorbance-based plate reader, which was preheated to ambient temperature (typically 25°C). The turbidity absorbance criterion for a peptide solubility of ≥ 1 mg/ml was an absorbance at 325 nm of ≤ 0.02 absorbance units (which is 5 to 6 times the standard deviation of 8 buffer samples in a plate). Solubility data for peptides of the invention, pramlintide, and for a comparison pramlintide derivative denoted NN96 (see Example 5 below for details) are shown in Table 1, below. Table 1. Solubility data for compounds of the invention.

For orientation: pEC50 means −log10 of the EC50, conventionally taken in molar units.

Turning to `CC[C@H](C)[C@@H](C(=O)N[C@@H](CC(C)C)C(=O)N[C@@H](CO)C(=O)N[C@@H](CO)C(=O)N[C@H](C(=O)N[C@@H](CC(N)=O)C(=O)N[C@H](C(=O)NCC(=O)N[C@@H](CO)C(=O)N[C@@H](CC(N)=O)C(=O)N[C@H](C(=O)N1CCC[C@H]1C(N)=O)[C@@H](C)O)C(C)C)[C@@H](C)O)N(C)C(=O)[C@H](C)NC(=O)CN(C)C(=O)[C@H](Cc1ccccc1)NC(=O)[C@H](CC(N)=O)NC(=O)[C@H](CC(N)=O)NC(=O)[C@H](CO)NC(=O)[C@H](CO)NC(=O)[C@H](Cc1c[nH]cn1)NC(=O)[C@H](Cc1c[nH]cn1)NC(=O)[C@H](CC(C)C)NC(=O)[C@H](Cc1ccccc1)NC(=O)[C@H](CCC(=O)O)NC(=O)[C@H](C)NC(=O)[C@@H](CC(C)C)NC(=O)[C@H](CCCNC(=N)N)NC(=O)[C@H](CCC(N)=O)NC(=O)[C@@H](NC(=O)[C@H](C)NC(=O)[C@@H]1CSSC[C@H](NC(=O)[C@H](CCCNC(=N)N)NC(=O)CC[C@H](NC(=O)CCCCCCCCCCCCCCCCCCC(=O)O)C(=O)O)C(=O)N[C@@H](CC(N)=O)C(=O)N[C@@H]([C@@H](C)O)C(=O)N[C@@H](C)C(=O)N[C@@H]([C@@H](C)O)C(=O)N1)[C@@H](C)O` [Compound 6, [19CD]-isoGlu-RC()NTATC()ATQR-DLeu-AEFLHHSSNNF-Gly(Me)-A-Ile(Me)-LSSTNVGSNTP-NH2] ({C20 diacid-γGlu}-RCNTATCATQR[dL]AEFLHHSSNNF[Sar]A[NMeI]LSSTNVGSNTP-NH2; disulfide 2-7), the pEC50 in data set [1] is 8.11.
`CC[C@H](C)[C@@H](C(=O)N[C@@H](CC(C)C)C(=O)N[C@@H](CO)C(=O)N[C@@H](CO)C(=O)N[C@H](C(=O)N[C@@H](CC(N)=O)C(=O)N[C@H](C(=O)NCC(=O)N[C@@H](CO)C(=O)N[C@@H](CC(N)=O)C(=O)N[C@H](C(=O)N1CCC[C@H]1C(N)=O)[C@@H](C)O)C(C)C)[C@@H](C)O)N(C)C(=O)[C@H](C)NC(=O)CN(C)C(=O)[C@H](Cc1ccccc1)NC(=O)[C@H](CC(N)=O)NC(=O)[C@H](CC(N)=O)NC(=O)[C@H](CO)NC(=O)[C@H](CO)NC(=O)[C@H](Cc1c[nH]cn1)NC(=O)[C@H](Cc1c[nH]cn1)NC(=O)[C@H](CC(C)C)NC(=O)[C@H](Cc1ccccc1)NC(=O)[C@H](CCC(=O)O)NC(=O)[C@H](C)NC(=O)[C@H](CC(C)C)NC(=O)[C@H](CCCNC(=N)N)NC(=O)[C@H](CCC(N)=O)NC(=O)[C@@H](NC(=O)[C@H](C)NC(=O)[C@@H]1CSSC[C@H](NC(=O)[C@H](CCCN)NC(=O)CC[C@H](NC(=O)CCCCCCCCCCCCCCCCCCC(=O)O)C(=O)O)C(=O)N[C@@H](CC(N)=O)C(=O)N[C@@H]([C@@H](C)O)C(=O)N[C@@H](C)C(=O)N[C@@H]([C@@H](C)O)C(=O)N1)[C@@H](C)O` [Compound 65, [19CD]-isoGlu-Orn-C()NTATC()ATQRLAEFLHHSSNNF-Gly(Me)-A-Ile(Me)-LSSTNVGSNTP-NH2] ({C20 diacid-γGlu}-[Orn]CNTATCATQRLAEFLHHSSNNF[Sar]A[NMeI]LSSTNVGSNTP-NH2; disulfide 2-7): in data set [2], the “Solubility, Acetate buffer pH 4” value is given as “SS (SS indicates solubility ≥ 1mg/ml)”; the “Solubility, Acetate buffer pH 5” value was “SS (SS indicates solubility ≥ 1mg/ml)”; the “Solubility, Histidine buffer pH 6” value is listed as “SS (SS indicates solubility ≥ 1mg/ml)”; the “Solubility, Histidine buffer pH 7” value is given as “SS (SS indicates solubility ≥ 1mg/ml)”. In data set [2], the “Solubility, Phosphate buffer pH 6” value was “SS (SS indicates solubility ≥ 1mg/ml)”; the “Solubility, Phosphate buffer pH 7” value is given as “SS (SS indicates solubility ≥ 1mg/ml)”; the “Solubility, Phosphate buffer pH 7.5” value is “SS (SS indicates solubility ≥ 1mg/ml)”.
For the compound `CCCCCCCCCCCCCCCCCCCC(=O)N[C@@H](CCC(=O)N[C@@H](CCCNC(=N)N)C(=O)N[C@H]1CSSC[C@@H](C(=O)N[C@@H](C)C(=O)N[C@H](C(=O)N[C@@H](CCC(N)=O)C(=O)N[C@@H](CCCNC(=N)N)C(=O)N[C@@H](CC(C)C)C(=O)N[C@@H](C)C(=O)N[C@@H](CCC(=O)O)C(=O)N[C@@H](Cc2ccccc2)C(=O)N[C@@H](CC(C)C)C(=O)N[C@@H](Cc2c[nH]cn2)C(=O)N[C@@H](CCCNC(=N)N)C(=O)N[C@@H](CO)C(=O)N[C@@H](CO)C(=O)N[C@@H](CC(N)=O)C(=O)N[C@@H](CC(N)=O)C(=O)N[C@@H](Cc2ccccc2)C(=O)N(C)CC(=O)N[C@@H](C)C(=O)N(C)[C@H](C(=O)N[C@@H](CC(C)C)C(=O)N[C@@H](CO)C(=O)N[C@@H](CO)C(=O)N[C@H](C(=O)N[C@@H](CC(N)=O)C(=O)N[C@H](C(=O)NCC(=O)N[C@@H](CO)C(=O)N[C@@H](CC(N)=O)C(=O)N[C@H](C(=O)N2CCC[C@H]2C(N)=O)[C@@H](C)O)C(C)C)[C@@H](C)O)[C@@H](C)CC)[C@@H](C)O)NC(=O)[C@H]([C@@H](C)O)NC(=O)[C@H](C)NC(=O)[C@H]([C@@H](C)O)NC(=O)[C@H](CC(N)=O)NC1=O)C(=O)O` [Compound 94, [Eicosanoyl]-isoGlu-RC()NTATC()ATQRLAEFLHRSSNNF-Gly(Me)-A-Ile(Me)-LSSTNVGSNTP-NH2] ({Arachidoyl-γGlu}-RCNTATCATQRLAEFLHRSSNNF[Sar]A[NMeI]LSSTNVGSNTP-NH2; disulfide 2-7), in data set [2], the “Solubility, Acetate buffer pH 4” value is “SS (SS indicates solubility ≥ 1mg/ml)”; the “Solubility, Acetate buffer pH 5” value is given as “SS (SS indicates solubility ≥ 1mg/ml)”; the “Solubility, Histidine buffer pH 6” value was “SS (SS indicates solubility ≥ 1mg/ml)”; the “Solubility, Histidine buffer pH 7” value is reported as “SS (SS indicates solubility ≥ 1mg/ml)”. In data set [2], the “Solubility, Phosphate buffer pH 6” value is listed as “SS (SS indicates solubility ≥ 1mg/ml)”; the “Solubility, Phosphate buffer pH 7” value is given as “SS (SS indicates solubility ≥ 1mg/ml)”; the “Solubility, Phosphate buffer pH 7.5” value is “SS (SS indicates solubility ≥ 1mg/ml)”.
